Read-outs that look alike come from different tables or passages of the source.
Tests used:
[1] = test system: Xanthomonas campestris pv. campestris; assay: Xanthomonas campestris pv. campestris in vitro cell test; assay type: cell-based; settings: 24 h of incubation, read-out: efficacy (inhibition of bacteria growth; no direct activity); for inhibition at 5 ppm: 5 ppm of active ingredient; for inhibition at 20 ppm: 20 ppm of active ingredient
Description: (§1) • Solvent: DMSO • Culture medium: LB broth medium (Luria Broth Miller) Sigma • Inoculum: bacteria suspension Compounds were solubilized in DMSO and the solution used to prepare the required range of concentrations. The final concentration of DMSO used in the assay was ≤1%. Inoculum was prepared from a pre-culture of bacteria grown in liquid medium and diluted to the desired optical density (OD). Compounds were evaluated for their ability to inhibit bacteria growth in liquid culture assay. The compounds were added in the desired concentrations to culture medium containing the bacteria suspension. After 24 h of incubation, the efficacy of compounds was determined by spectrometric measurement of bacteria growth. Inhibition was determined by comparing the absorbance values in wells containing the compounds with the absorbance in control wells without active ingredients.

[2] = test system: Alternaria alternata; assay: Alternaria alternata in vitro cell test; assay type: cell-based; settings: 120 h, 5 days incubation, read-out: efficacy (inhibition of fungal growth; no direct activity); for inhibition at 5 ppm: 5 ppm of active ingredient; for inhibition at 20 ppm: 20 ppm of active ingredient
Description: (§2) • Solvent: DMSO • Culture medium: 14.6 g anhydrous D-glucose (VWR), 7.1 g Mycological Peptone (Oxoid), 1.4 g granulated Yeast Extract (Merck), QSP 1 liter • Inoculum: spores suspension Fungicides were solubilized in DMSO and the solution used to prepare the required range of concentrations. The final concentration of DMSO used in the assay was ≤[…]1%. A spore suspension of A. alternata was prepared and diluted to the desired spore density. Fungicides were evaluated for their ability to inhibit spore germination and mycelium growth in liquid culture assay. The compounds were added in the desired concentration to the culture medium with spores. After 5 days incubation, fungi-toxicity of compounds was determined by spectrometric measurement of mycelium growth. Inhibition of fungal growth was determined by comparing the absorbance values in wells containing the fungicides with the absorbance in control wells without fungicides.

[3] = LogP by HPLC on reversed phase columns (EEC directive 79/831 Annex V.A8); assay type: physicochemical; settings: reversed phase HPLC columns
Description: [table] If more than one Log P value is available within the same method, all the values are given and separated by “+”. Calibration was done with straight-chain alkan2-ones (with 3 to 16 carbon atoms) with known Log P values (measurement of Log P values using retention times with linear interpolation between successive alkanones). Lambda-max-values were determined using UV-spectra from 200 nm to 400 nm and the peak values of the chromatographic signals.

[4] = test system: Colletotrichum lindemuthianum; assay: Colletotrichum lindemuthianum in vitro cell test; assay type: cell-based; settings: 144 h, 6 days incubation, read-out: efficacy (inhibition of fungal growth; no direct activity); for inhibition at 5 ppm: 5 ppm of active ingredient; for inhibition at 20 ppm: 20 ppm of active ingredient
Description: as §2, with “of C. lindemuthianum” for “of A. alternata”, “inhibit spores” for “inhibit spore”, “After 6” for “After 5”

[5] = test system: Peronospora parasitica; assay: In vivo preventive test on Peronospora parasitica (Crucifer downy mildew) on cabbage; settings: Hyaloperonospora parasitica, 120 h, sprayed 72 hours before inoculation, evaluated 5 days after inoculation, read-out: efficacy; for pest or weed control at 31 ppm: 31 ppm of active ingredient; for pest or weed control at 125 ppm: 125 ppm of active ingredient; for pest or weed control at 500 ppm: 500 ppm of active ingredient
Description: (§3) The tested active ingredients were prepared by homogenization in a mixture of acetone/Dimethyl sulfoxide/Tween®, and then diluted with water to obtain the desired active material concentration.
(§4) The young plants of cabbage were treated by spraying the active ingredient prepared as described above. Control plants were treated only with an aqueous solution of acetone/Dimethyl sulfoxide/Tween®.
After 72 hours, the plants were contaminated by spraying the leaves with an aqueous suspension of Peronospora parasitica spores. The contaminated cabbage plants were incubated for 5 days at 20° C. and at 100% relative humidity.
The test was evaluated 5 days after the inoculation. 0% means an efficacy which corresponds to that of the control plants while an efficacy of 100% means that no disease was observed.

[6] = test system: salicylate responsive promoter sequence of the PR1 (pathogenesis-related protein I) gene (AT2G14610); assay: Induction of defense gene expression in Arabidopsis thaliana (PR1 promoter-GFP reporter plants); assay type: in vivo; settings: 72 h, 3rd day after spraying, mock treated leaves set as 1.00, read-out: relative fluorescence value
Description: Arabidopsis thaliana reporter plants containing the coding sequence of a green fluorescent protein (GFP) linked to the salicylate responsive promoter sequence of the PR1 (pathogenesis-related protein I) gene (AT2G14610) were grown for five days and then sprayed with compounds. On the 3rd day after spraying, plant fluorescence was assessed with a MacroFluo instrument from Leica Microsystems (Wetzlar, Germany). Fluorescences were quantified with the Meta-Morph Microscopy Automation & Image Analysis Software (Molecular Devices, Sunnyvale, Calif., United States). Background fluorescence in mock treated leaves was set as 1.00.

[7] = test system: Uromyces appendiculatus; assay: In vivo preventive test on Uromyces appendiculatus (bean rust); settings: 240 h, sprayed 72 hours before inoculation, evaluated 10 days after inoculation, read-out: efficacy; for pest or weed control at 31 ppm: 31 ppm of active ingredient; for pest or weed control at 125 ppm: 125 ppm of active ingredient; for pest or weed control at 500 ppm: 500 ppm of active ingredient
Description: as §3
(§5) The young plants of bean were treated by spraying the active ingredient prepared as described above. Control plants were treated only with an aqueous solution of acetone/Dimethyl sulfoxide/Tween®.
After 72 hours, the plants were contaminated by spraying the leaves with an aqueous suspension of Uromyces appendiculatus spores. The contaminated bean plants were incubated for 24 hours at 20° C. and at 100% relative humidity and then for 9 days at 20° C. and at 70-80% relative humidity.
The test was evaluated 10 days after the inoculation. 0% means an efficacy which corresponds to that of the control plants while an efficacy of 100% means that no disease was observed.

[8] = test system: Pseudomonas syringae pv. tomato; assay: Pseudomonas syringae pv. tomato in vitro cell test; assay type: cell-based; settings: 20 ppm of active ingredient, 24 h of incubation, read-out: efficacy (inhibition of bacteria growth; no direct activity)
Description: as §1

[9] = test system: Xanthomonas campestris pv. campestris; assay: In vivo preventive test on Xanthomonas campestris pv. campestris (black rot on cabbage); settings: Xanthomonas campestris, sprayed 72 hours before inoculation, evaluated 8 or 10 days after inoculation, read-out: efficacy; for pest or weed control at 500 ppm: 500 ppm of active ingredient
Description: as §3, §4
After 72 hours, the plants were contaminated by spraying the leaves with an aqueous bacteria suspension of Xanthomonas campestris pv. campestris. The contaminated cabbage plants were incubated for 8 or 10 days at 27° C. at 95% relative humidity.
The test was evaluated 8 or 10 days after the inoculation. 0% means an efficacy which corresponds to that of the control plants while an efficacy of 100% means that no disease was observed.

[10] = test system: Colletotrichum lindemuthianum; assay: In vivo preventive test on Colletotrichum lindemuthianum (Anthracnose on bean); settings: Colletotrichum lindemuthianum, 144 h, sprayed 72 hours before inoculation, evaluated 6 days after inoculation, read-out: efficacy
Description: as §3, §5
After 72 hours, the plants were contaminated by spraying the leaves with an aqueous suspension of Colletotrichum lindemuthianum spores. The contaminated bean plants were incubated for 24 hours at 20° C. and at 100% relative humidity and then for 5 days at 20° C. and at 90% relative humidity.
The test was evaluated 6 days after the inoculation. 0% means an efficacy which corresponds to that of the control plants while an efficacy of 100% means that no disease was observed.

[11] = preparation examples, method not indicated, read-out: Log P

SMILES	chromatographic logP ([3]; method [a])	inhibition at 5 ppm [1] [%]	inhibition at 20 ppm [1] [%]	inhibition at 5 ppm [2] [%]	inhibition at 20 ppm [2] [%]	inhibition at 5 ppm [4] [%]	inhibition at 20 ppm [4] [%]	pest or weed control at 31 ppm [5] [%]	pest or weed control at 125 ppm [5] [%]	pest or weed control at 500 ppm [5] [%]	fold induction at 75 ppm [6]	fold induction at 300 ppm [6]	pest or weed control at 31 ppm [7] [%]	pest or weed control at 500 ppm [7] [%]	inhibition at 20 ppm [8] [%]	further results
CCOC(=O)C(CC(N)=O)NC(=O)c1sc(Br)c(Br)c1C (centres unmarked) [I.016]	2.26	≤ 30	≤ 30	≤ 30	≤ 30	≤ 30	≤ 30	90 to 100	90 to 100	90 to 100	> 2	> 2	90 to 100	80 to 89	≤ 30	pest or weed control at 125 ppm [7]: 90 to 100%
COC(=O)C1(NC(=O)c2sc(Br)c(Br)c2C)CSC1 [I.015]	3.31	≤ 30	≤ 30	≤ 30	–	≤ 30	≤ 30	90 to 100	90 to 100	90 to 100	> 2	> 2	90 to 100	90 to 100	≤ 30	–
CONC(=O)[C@@H](NC(=O)c1sc(Br)c(Br)c1C)C(C)C [I.074, N^2-[(4,5-dibromo-3-methyl-2-thienyl)carbonyl]-N-methoxyvalinamide]	–	≤ 30	≤ 30	≤ 30	≤ 30	≤ 30	≤ 30	–	–	–	–	> 2	–	–	≤ 30	chromatographic logP [3, 11]: 2.77
CCOC(=O)C1(NC(=O)CNC(=O)c2sc(Br)c(Br)c2C)CC1 [I.024, ethyl 1-({N-[(4,5-dibromo-3-methyl-2-thienyl)carbonyl]glycyl}amino)cyclopropanecarboxylate]	–	≤ 30	≤ 30	≤ 30	≤ 30	≤ 30	≤ 30	–	–	–	> 2	–	–	–	≤ 30	chromatographic logP [3, 11]: 2.55
COC(=O)C1(NC(=O)c2cc(Cl)c(Cl)s2)CC1 [CMP4, reference compound]	–	–	–	–	–	–	–	–	0	0	–	–	< 40	–	–	pest or weed control at 31 ppm ([10]; 31 ppm of active ingredient): 0%; pest or weed control at 125 ppm ([10]; 125 ppm of active ingredient): < 40%; pest or weed control at 31 ppm ([9]; 31 ppm of active ingredient): 0%; pest or weed control at 500 ppm [9]: 0%
COC(=O)C1(NC(=O)c2sc(Br)c(Br)c2C)CCC(F)(F)CC1 [I.005]	3.83	≤ 30	≤ 30	≤ 30	≤ 30	≤ 30	–	–	–	–	–	–	–	90 to 100	≤ 30	–

The next lines start with results.

chromatographic logP ([3]; method [a])	SMILES	inhibition at 5 ppm [1] [%]	inhibition at 20 ppm [1] [%]	inhibition at 5 ppm [2] [%]	inhibition at 20 ppm [2] [%]	inhibition at 5 ppm [4] [%]	inhibition at 20 ppm [4] [%]	pest or weed control at 31 ppm [5] [%]	pest or weed control at 125 ppm [5] [%]	pest or weed control at 500 ppm [5] [%]	fold induction at 75 ppm [6]	fold induction at 300 ppm [6]	pest or weed control at 31 ppm [7] [%]	pest or weed control at 500 ppm [7] [%]	inhibition at 20 ppm [8] [%]	further results
3.23	CCOC(=O)CN(C)C(=O)c1sc(Br)c(Br)c1C [I.056]	≤ 30	≤ 30	≤ 30	≤ 30	≤ 30	–	–	80 to 89	90 to 100	–	–	–	–	≤ 30	–
3.46	CCOC(=O)C(COC)NC(=O)c1sc(Br)c(Br)c1C (centres unmarked) [I.034]	≤ 30	≤ 30	≤ 30	≤ 30	≤ 30	–	–	–	–	–	> 2	–	90 to 100	≤ 30	pest or weed control at 500 ppm [9]: 80 to 89%
3.17	COC(=O)CC[C@H](NC(=O)c1sc(Br)c(Br)c1C)C(=O)OC [I.136]	≤ 30	≤ 30	≤ 30	≤ 30	≤ 30	≤ 30	80 to 89	90 to 100	90 to 100	> 2	> 2	90 to 100	90 to 100	≤ 30	pest or weed control at 125 ppm [7]: 90 to 100%

Reference: US12509437B2, “Substituted thiophene carboxamides and derivatives thereof as microbicides” (Bayer Aktiengesellschaft, priority 2019, dated 2025)
